Measured values reported in ChEMBL document CHEMBL4602611, “Discovery of 1,2,4-triazine-based derivatives as novel neddylation inhibitors and anticancer activity studies against gastric cancer MGC-803 cells” (Bioorg Med Chem Lett, 2020).
Calls of active or inactive are those of the source. The calls are words filed in the database; no cut-off is given here.

How the values were obtained:
[1] = tested on: ECa-109 cell line; test: Antiproliferative activity against human EC109 cells assessed as inhibition of cell growth incubated for 48 hrs by MTT assay; format: functional, cell-based; details: ECa-109, 48 h
[2] = tested on: MGC-803; test: Antiproliferative activity against human MGC803 cells assessed as inhibition of cell growth incubated for 48 hrs by MTT assay; format: functional, cell-based; details: for IC50: MGC-803, 48 h
[3] = tested on: PC-3; test: Antiproliferative activity against human PC3 cells assessed as inhibition of cell growth incubated for 48 hrs by MTT assay; format: functional, cell-based; details: PC-3, 48 h
[4] = target: T1, NEDD8-activating enzyme E1 regulatory subunit (Homo sapiens) (UniProt Q13564); test: Inhibition of NAE (unknown origin)-mediated neddylation assessed as decrease in Nedd8-Ubcl2 adduct formation at 10 uM by Western blot analysis
T1 sequence (whole entry): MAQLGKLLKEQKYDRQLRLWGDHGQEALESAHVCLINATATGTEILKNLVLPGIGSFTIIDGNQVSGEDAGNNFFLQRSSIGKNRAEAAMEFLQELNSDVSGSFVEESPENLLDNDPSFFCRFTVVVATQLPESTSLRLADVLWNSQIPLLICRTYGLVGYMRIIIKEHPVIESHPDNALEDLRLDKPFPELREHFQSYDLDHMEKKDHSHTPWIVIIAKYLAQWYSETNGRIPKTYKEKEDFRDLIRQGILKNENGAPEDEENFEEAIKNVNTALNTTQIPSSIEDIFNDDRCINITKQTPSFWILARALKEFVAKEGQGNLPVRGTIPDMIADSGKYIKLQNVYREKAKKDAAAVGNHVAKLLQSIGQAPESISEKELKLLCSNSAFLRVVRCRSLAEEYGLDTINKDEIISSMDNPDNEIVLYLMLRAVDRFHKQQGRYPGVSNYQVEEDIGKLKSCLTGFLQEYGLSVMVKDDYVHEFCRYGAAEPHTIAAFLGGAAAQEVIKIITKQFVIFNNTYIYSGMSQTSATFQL

[5] = target: T1, NEDD8-activating enzyme E1 regulatory subunit (Homo sapiens); test: Inhibition of NAE-mediated neddylation in human MGC803 cells assessed as reduction in Nedd8-Cullin1 adduct formation by Western blot analysis; format: cell-based
[6] = tested on: MGC-803; test: Downregulation of XIAP protein expression in human MGC803 cells at 5 to 20 umol/l incubated for 48 hrs by Western blot analysis; format: functional, cell-based
[7] = tested on: MGC-803; test: Upregulation in Bax protein expression in human MGC803 cells at 5 to 20 umol/l incubated for 48 hrs by Western blot analysis; format: functional, cell-based
[8] = tested on: MGC-803; test: Increase in Noxa protein expression in human MGC803 cells at 5 to 20 umol/l incubated for 24 hrs by Western blot analysis; format: functional, cell-based
[9] = target: T1, NEDD8-activating enzyme E1 regulatory subunit (Homo sapiens); test: Inhibition of NAE-mediated neddylation in human MGC803 cells assessed as reduction in NAE1-Nedd8 adduct formation at 10 uM incubated for 24 hrs by Western blot analysis; format: cell-based; details: MGC-803
[10] = tested on: MGC-803; test: Increase in CHOP protein expression in human MGC803 cells at 5 to 20 umol/l incubated for 24 hrs by Western blot analysis; format: functional, cell-based
[11] = target: T1, NEDD8-activating enzyme E1 regulatory subunit (Homo sapiens); test: Inhibition of NAE-mediated neddylation in human MGC803 cells assessed as reduction in Nedd8-Ubcl2 adduct formation at 5 uM incubated for 24 hrs by Western blot analysis; format: cell-based; details: MGC-803
[12] = tested on: MGC-803; test: Antiproliferative activity against human MGC803 cells assessed as fold increase in cell growth at 10 umol/l incubated for 48 hrs by MTT assay relative to control; format: functional
[13] = target: T1, NEDD8-activating enzyme E1 regulatory subunit (Homo sapiens); test: Inhibition of NAE-mediated neddylation in human MGC803 cells assessed as reduction in Nedd8-Ubcl2 adduct formation at 10 uM incubated for 24 hrs by Western blot analysis relative to control; format: cell-based; details: MGC-803
[14] = tested on: MGC-803; test: Downregulation of CDK1 protein expression in human MGC803 cells at 5 to 20 umol/l incubated for 24 hrs by Western blot analysis; format: functional, cell-based
[15] = tested on: MGC-803; test: Increase in p21 protein expression in human MGC803 cells at 5 to 20 umol/l incubated for 24 hrs by Western blot analysis; format: functional, cell-based
[16] = tested on: MGC-803; test: Induction of apoptosis in human MGC803 cells assessed as increase in cleaved caspase3 expression at 5 to 20 umol/l incubated for 48 hrs by Western blot analysis; format: functional, cell-based
[17] = target: T1, NEDD8-activating enzyme E1 regulatory subunit (Homo sapiens); test: Inhibition of NAE (unknown origin)-mediated neddylation assessed as decrease in Nedd8-Ubcl2 adduct formation at 5 uM by Western blot analysis
[18] = tested on: MGC-803; test: Induction of apoptosis in human MGC803 cells assessed as increase in cleaved caspase9 expression at 5 to 20 umol/l incubated for 48 hrs by Western blot analysis; format: functional, cell-based
[19] = tested on: MGC-803; test: Induction of cell cycle arrest in human MGC803 cells assessed as accumulation in G2/M phase at 5 to 20 umol/l incubated for 24 hrs by propidium iodide staining based flow cytometric analysis; format: functional
[20] = tested on: MGC-803; test: Induction of apoptosis in human MGC803 cells assessed as increase in cleaved PARP expression at 5 to 20 umol/l incubated for 48 hrs by Western blot analysis; format: functional, cell-based
[21] = tested on: MGC-803; test: Induction of cell cycle arrest in human MGC803 cells assessed as fold change in accumulation in G2/M phase at 5 to 20 umol/l incubated for 24 hrs by propidium iodide staining based flow cytometric analysis relative to control; format: functional
[22] = target: T1, NEDD8-activating enzyme E1 regulatory subunit (Homo sapiens); test: Inhibition of NAE-mediated neddylation in human MGC803 cells assessed as reduction in Nedd8-Cullin3 adduct formation at 10 uM incubated for 24 hrs by Western blot analysis; format: cell-based; details: MGC-803
[23] = target: T2, NEDD8-activating enzyme E1 regulatory subunit (Homo sapiens, UniProt Q13564); test: (§1) Inhibition of NAE-mediated neddylation in human MGC803 cells assessed as reduction in Nedd8-Ubcl2 adduct formation incubated for 24 hrs by Western blot analysis; format: cell-based, MGC-803
T2 sequence (Q13564 whole entry): T1 sequence (whole entry)

[24] = target: T1, NEDD8-activating enzyme E1 regulatory subunit (Homo sapiens); test: as §1; format: cell-based; details: MGC-803
[25] = tested on: MGC-803; test: Downregulation of Cyclin B1 protein expression in human MGC803 cells at 5 to 20 umol/l incubated for 24 hrs by Western blot analysis; format: functional, cell-based
[26] = tested on: MGC-803; test: Increase in DR5 protein expression in human MGC803 cells at 5 to 20 umol/l incubated for 24 hrs by Western blot analysis; format: functional, cell-based
[27] = tested on: MGC-803; test: Induction of apoptosis in human MGC803 cells at 5 to 20 umol/l incubated for 48 hrs by AnnexinV-FITC/PI staining based flow cytometric analysis relative to control; format: functional
[28] = tested on: MGC-803; test: Increase in ATF4 protein expression in human MGC803 cells at 5 to 20 umol/l incubated for 24 hrs by Western blot analysis; format: functional, cell-based
[29] = tested on: MGC-803; test: Antiproliferative activity against human MGC803 cells assessed as inhibition of cell growth at 10 umol/l measured within 48 hrs of incubation by MTT assay; format: functional, cell-based
[30] = tested on: MGC-803; test: Inhibition of colony formation in human MGC803 cells at 0.5 uM incubated for 7 days by crystal violet staining based assay; format: functional, cell-based

`O=c1[nH]cc(F)c(=O)[nH]1` [FLUOROURACIL] showed an IC50 [1] of 21.2 µM.
Molecule `COc1cc(Nc2nc(Nc3ccc(C(C)=O)cc3)nnc2Cl)cc(OC)c1OC` has an IC50 [2] of 13 µM, an IC50 [1] of 36.3 µM and an IC50 [3] of 38.6 µM.
For `CCOC(=O)c1ccc(Nc2nnc(Cl)c(Nc3cc(OC)c(OC)c(OC)c3)n2)cc1`, the IC50 [2] was 53.6 µM, the IC50 [1] was 46.6 µM and the IC50 [3] was 58.5 µM.
With `NS(=O)(=O)OC[C@@H]1C[C@@H](n2ccc3c(N[C@H]4CCc5ccccc54)ncnc32)C[C@@H]1O` the inhibition [4] was “Active”.
In the case of `COc1cc(Nc2nc(Cl)nnc2Cl)cc(OC)c1OC`, the inhibition ([5]; MGC-803) is reported as “Dose-dependent effect”.
`COc1cccc(Nc2nnc(Cl)c(Nc3cc(OC)c(OC)c(OC)c3)n2)c1` showed an IC50 [2] of 16.5 µM, an IC50 [1] of 15.9 µM and an IC50 [3] of 11.3 µM.
With `COc1cc(Nc2nc(Nc3ccc4c(ccn4C)c3)nnc2Cl)cc(OC)c1OC` the IC50 [2] was 28.1 µM, the IC50 [1] was 42.1 µM and the IC50 [3] was 48.5 µM.
In the case of `COc1cc(Nc2nc(Nc3ccc(Br)cc3)nnc2Cl)cc(OC)c1OC`, the IC50 [2] is reported as 11.3 µM, the IC50 [1] is reported as 41.6 µM and the IC50 [3] is reported as 8.99 µM.
With `COc1cc(Nc2nc(Nc3ccc(C(N)=O)cc3)nnc2Cl)cc(OC)c1OC` the IC50 [2] was 15.2 µM, the IC50 [1] was 42.4 µM and the IC50 [3] was 32.1 µM.
Work on `COc1ccc(Nc2nnc(Cl)c(Nc3cc(OC)c(OC)c(OC)c3)n2)cc1` yielded an IC50 [2] of 18.9 µM, an IC50 [1] of 22.3 µM and an IC50 [3] of 13.5 µM.
With `COc1cc(Nc2nnc(Cl)c(Nc3cc(OC)c(OC)c(OC)c3)n2)cc(OC)c1OC` the IC50 [2] was 24.3 µM, the IC50 [1] was > 50 µM and the IC50 [3] was 34.3 µM.
`COc1cc(Nc2nc(Nc3ccc(Cl)cc3)nnc2Cl)cc(OC)c1OC` gave an IC50 [2] of 12.6 µM, an IC50 [1] of 32.6 µM and an IC50 [3] of 9.61 µM.
With `COc1cc(Nc2nc(Nc3ccc4[nH]ccc4c3)nnc2Cl)cc(OC)c1OC` the inhibition [6] was “Active”, the Activity [7] was “Active” and the inhibition [2] was “Dose-dependent effect”. The IC50 [2] was 8.22 µM, the IC50 [1] was 9.64 µM and the Activity [8] was “Active”. For the same molecule, the inhibition [9] was “Active”, the Activity [10] was “Active” and the inhibition [11] was “Active”. For the same molecule, the “fold change (FC)” value [12] was 1.3, the inhibition [13] was 100% and the inhibition ([5]; MGC-803, TDE = time-dependent effect) was “Tde”. The inhibition [14] was “Active”, the Activity [15] was “Active” and the Activity [16] was “Active”. For the same molecule, the inhibition [17] was “Active”, the Activity [18] was “Active” and the Activity [19] was “Active”. The IC50 [3] was 9.28 µM, the Activity [20] was “Active” and the “fold change (FC)” value [21] was 2. For the same molecule, the inhibition [22] was “Active”, the EC50 [23] was 3.56 µM and the inhibition [24] was “Dose-dependent effect”. The inhibition [25] was “Active”, the Activity [26] was “Active” and the Activity [27] was 60%. The Activity [28] was “Active”, the Activity [29] was “Active” and the inhibition [30] was “Active”.
In the case of `COc1cc(Nc2nc(Nc3ccccc3)nnc2Cl)cc(OC)c1OC`, the IC50 [2] is reported as 8.75 µM, the IC50 [1] is reported as 12.6 µM and the IC50 [3] is reported as 9.75 µM.
`COc1cc(Nc2nc(Nc3ccc(C)cc3)nnc2Cl)cc(OC)c1OC` showed an IC50 [2] of 19.8 µM, an IC50 [1] of 27.3 µM and an IC50 [3] of 14.3 µM.
